Measurements reported in BindingDB's records for doi:10.1016/j.bmcl.2008.08.095 (Sunesis Pharmaceuticals, 2008).
pIC50: −log10 of the molar value.

Target: Focal adhesion kinase 1 (Homo sapiens, UniProt Q05397)
Sequence (Q05397 whole entry): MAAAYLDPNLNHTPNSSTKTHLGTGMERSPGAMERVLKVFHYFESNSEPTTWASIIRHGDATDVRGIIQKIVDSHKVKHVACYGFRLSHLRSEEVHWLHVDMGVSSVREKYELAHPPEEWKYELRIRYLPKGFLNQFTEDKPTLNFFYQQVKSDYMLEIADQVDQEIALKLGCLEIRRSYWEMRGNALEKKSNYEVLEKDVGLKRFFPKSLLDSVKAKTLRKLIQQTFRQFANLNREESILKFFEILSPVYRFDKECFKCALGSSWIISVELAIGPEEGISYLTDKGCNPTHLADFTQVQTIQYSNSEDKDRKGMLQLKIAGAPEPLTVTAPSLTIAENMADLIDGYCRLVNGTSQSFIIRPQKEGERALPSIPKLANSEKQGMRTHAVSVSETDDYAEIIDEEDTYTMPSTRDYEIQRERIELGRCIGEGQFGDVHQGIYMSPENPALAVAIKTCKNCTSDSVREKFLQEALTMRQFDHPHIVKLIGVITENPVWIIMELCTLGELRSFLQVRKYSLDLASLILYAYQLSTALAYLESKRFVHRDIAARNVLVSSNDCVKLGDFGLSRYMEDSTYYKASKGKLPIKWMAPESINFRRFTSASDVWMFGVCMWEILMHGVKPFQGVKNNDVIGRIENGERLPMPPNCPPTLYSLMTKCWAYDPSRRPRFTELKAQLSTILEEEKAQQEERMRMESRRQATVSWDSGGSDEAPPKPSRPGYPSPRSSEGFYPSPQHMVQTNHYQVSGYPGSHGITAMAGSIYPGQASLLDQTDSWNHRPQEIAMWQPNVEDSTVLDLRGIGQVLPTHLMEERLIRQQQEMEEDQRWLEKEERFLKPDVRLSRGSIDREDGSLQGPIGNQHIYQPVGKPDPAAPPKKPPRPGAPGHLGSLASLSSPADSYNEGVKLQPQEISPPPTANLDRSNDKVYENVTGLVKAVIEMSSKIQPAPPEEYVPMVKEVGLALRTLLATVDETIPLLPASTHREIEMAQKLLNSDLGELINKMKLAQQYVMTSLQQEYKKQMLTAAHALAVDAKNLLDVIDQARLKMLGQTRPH

SMILES	pIC50
CC(=O)Nc1ccccc1-c1cc(Cl)cc(-n2nc(C)c3cnc(N[C@@H](C)c4ccccc4)cc32)c1 [N-{2-[3-chloro-5-(3-methyl-6-{[(1S)-1-phenylethyl]amino}-1H-pyrazolo[4,3-c]pyridin-1-yl)phenyl]phenyl}acetamide]	5.20
Cc1nn(-c2cc(Cl)cc(CCC(N)=O)c2)c2cc(N[C@@H](C)c3ccccc3)ncc12 [3-[3-chloro-5-(3-methyl-6-{[(1S)-1-phenylethyl]amino}-1H-pyrazolo[4,3-c]pyridin-1-yl)phenyl]propanamide]	5.13
